How the values were obtained:
[1] = test system: HEK 293 cells; assay: Growth of transfected HEK 293 cells monitored by GFP fluorescence; type: cell-based; details: 0-200 mM toxin, 24 h
Method: A TMT insert was generated by linearizing pBluescript vector harboring the full-length clone (described in Example 2) with SpeI and ApaI and inserted into the pTracer™-SV40 mammalian expression plasmid. This vector contains a cycle-3-GFP, an improved Green Fluorescent Protein gene fused to Zeocin™ resistance gene for selection in mammalian cells. Transfection of HEK 293 cells was carried out in 24 well plates using Fugene 6™ Transfection reagent (Roche Molecular Biochemicals). A ratio of DNA to Fugene of 1:6 and 200 or 400 ng of DNA were used. Each well was seeded with 2×10^5 cells grown in a monolayer for 16 h in […] DMEM containing 10% serum. Transfection was performed on 90% confluent cells. Prior to transfection, the medium containing serum was removed and replaced with 150 μl of serum-free medium in each well. A DNA/Fugene 6 mixture was incubated for 15 min at room temperature and 100 μl of this mixture was added drop-wise to each well while cells were gently rocked. After a 3 hour incubation, another 250 μl DMEM containing 2× serum was added to each well and cells were further incubated for 48 h. […] These cells were allowed to grow for another 24 h. Growth was monitored by fluorescent microscopy to detect the presence of GFP. […] The emission of CH3I was then monitored by gas chromatography.

[2] = test system: E. coli M15 cells; assay: Bacterial growth (OD600) in the presence of toxin; type: cell-based, Escherichia coli; details: for growth of non-transgenic bacteria: E. coli M15 with empty vector pQE30, 4 h at 37° C.; for ΔOD600 (growth of transgenic bacteria): E. coli M15 with pQETMT1, 4 h at 37° C.
Method: E. coli M15 cells transformed with the empty vector pQE30 (referred to as non-transgenic bacteria) or pQETMT1 (hereafter referred to as transgenic bacteria) were grown as 15 ml starter cultures in LB medium supplemented with 100 μg/ml ampicillin and […] kanamycin at 37° C. for 16 h. 5 ml of each culture was then transferred to 100 ml of fresh LB medium containing the same concentrations of both antibiotics and cultures grown to an OD600 of 0.6. […] In the culture tubes, expression of the recombinant TMT protein was induced by adding […] (IPTG) to a final concentration of 1 mM. All the culture tubes were incubated at 37° C. for another 4 h. Bacterial growth at different toxin concentrations was measured by optical density (OD600) and the difference in OD600 (ΔOD600) was calculated.

[3] = test system: A. thaliana plants; assay: In vivo TMT activity in 3 Arabidopsis phenotypes grown on SCN
Method: (§1) In vivo assay: This assay was used in the studies described herein. In vivo TMT activity is measured in 10 leaf disks placed on a Whatman filter paper (4.25 cm) in a 50-ml Erlenmeyer flask, and incubated with 2 ml of a 100 mM KI solution (Saini et al., [1995] Plant, Cell and Environment, 18:1027-1033). The flask is sealed with a rubber stopper and CH3I formed in the headspace is quantified after 2 h by gas chromatography. Assays for alternative substrates or inhibitors of the enzyme contained 20 mol m^−3 KI (the known substrate) and a range of concentrations of the compound to be tested. In the assay for HS^− methylation, KI in the above assay is replaced with 20 mM (NH4)2S.
With reference to FIG. 36, the effect of SCN on TMT activity in 3 Arabidopsis phenotypes was analysed. […] As the concentration of SCN increased the TT and Tt plants were less and less able to methylate the SCN. TT plants could methylate the SCN up to 10 mM while the Tt had no activity after 2.5 mM, as it appears that higher levels of SCN may have some toxicity to the heterozygote plant.

[4] = test system: tobacco plants; assay: In vivo TMT activity of tobacco plants grown on SCN; details: transgenic tobacco plant
Method: as §1
With reference to FIG. 34, the effect of SCN on in vivo TMT activity of transgenic/non-transgenic tobacco plants was analysed. […] As the concentration of SCN increased to 5 mM, the transgenic plant was able to methylate the SCN but beyond 5 mM, the activity decreased as higher SCN levels appear to confer some toxicity to the plant.

[5] = test system: potato roots; assay: Potato root growth on MS with toxin (WinRhizo root length); design: species or system Solanum tuberosum cv Russet Burbank; details: increasing toxin concentration, 10 days, transgenic and non-transgenic roots
From the text: pBluescript plasmid harboring the full-length TMT1clone (SEQ ID NO:1) was linearized with BamHI and KpnI and cloned in a sense orientation into the binary pBin19 double enhancer vector between the 35S promoter of CaMV and the Nos terminator. Agrobacterium rhizogenes wild-type strain A4 was then transformed either with the pBin/TMT vector or pBin vector alone. Freshly cut Solanum tuberosum cv Russet Burbank petioles were decontaminated by soaking in diluted commercial bleach (10%) containing 0.01% Tween-20™ for 10 min, followed by three 10 min washes in sterile water. The petioles were then cut into 4 cm segments and cultured apical side down in MS medium containing 0.4% phytagel™. The upper parts of the petioles were infected with freshly streaked A. rhizogenes A4 carrying the pBin19 vector alone (non-transgenic roots) or with the pBin vector with the TMT insert (transgenic roots). Roots started appearing after about 10 days. […]
Every 2 weeks, the carbenicillin concentration was halved until no carbenicillin was present in the medium. All roots were then screened for TMT activity using an in vivo technique where KI in solution (100 mM) was added to the roots and emission of CH3I was detected using gas chromatography. […] The roots were placed in MS containing 0.2% phytagel and allowed to grow for 10 days after which the growth was measured using WinRhizo™ software.

## I [KI]
[1]
  GFP fluorescence (cell viability), transgenic vs non-transgenic cells: more fluorescence in the transgenic than in the non-transgenic cells
[2]; 250 mM KI
  growth of non-transgenic bacteria: growth of the non-transgenic bacteria was halted
  ΔOD600 (growth of transgenic bacteria): 0.547

## N#C[S-].[Na+] [NaSCN]
[1]
  GFP fluorescence (cell viability), transgenic vs non-transgenic cells: more fluorescence in the transgenic than in the non-transgenic cells
[3]; TT (wild type) plants
  SCN concentration up to which plants could methylate SCN (TMT activity): up to 10 mM
[3]; Tt (heterozygous) plants
  SCN concentration after which there was no TMT activity: > 2.5 mM
[4]
  SCN concentration beyond which in vivo TMT activity decreased: > 5 mM
[5]
  root growth (root length): growth of both transgenic and non-transgenic roots was affected
[2]; 200 mM NaSCN
  growth of non-transgenic bacteria: halted non-transgenic bacterial growth
  ΔOD600 (growth of transgenic bacteria): 0.377

Source: patent publication US20070169214A1, “Thiol methyltransferase-based selection” (priority 2004, published 2007)
